Data as given in PubChem BioAssay (NCI).
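Exposure lasted 48 hours, with cells grown in 96-well plates and compounds tested at five concentrations. TGI is the concentration that stops growth completely.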

Key:
Assay in all cases: NCI-60 cell line screen, 48 h
786-0 renal = test system: 786-0 renal
A549 NSCLC = test system: A549 NSCLC
ACHN renal = test system: ACHN renal
BT-549 breast = test system: BT-549 breast
CAKI-1 renal = test system: CAKI-1 renal
CCRF-CEM leukemia = test system: CCRF-CEM leukemia
COLO 205 colon = test system: COLO 205 colon
DU-145 prostate = test system: DU-145 prostate
EKVX NSCLC = test system: EKVX NSCLC
HCC-2998 colon = test system: HCC-2998 colon
HCT-116 colon = test system: HCT-116 colon
HCT-15 colon = test system: HCT-15 colon
HL-60(TB) leukemia = test system: HL-60(TB) leukemia
HOP-62 NSCLC = test system: HOP-62 NSCLC
HOP-92 NSCLC = test system: HOP-92 NSCLC
HS 578T breast = test system: HS 578T breast
HT29 colon = test system: HT29 colon
IGROV1 ovarian = test system: IGROV1 ovarian
K-562 leukemia = test system: K-562 leukemia
KM12 colon = test system: KM12 colon
LOX IMVI melanoma = test system: LOX IMVI melanoma
M14 melanoma = test system: M14 melanoma
MALME-3M melanoma = test system: MALME-3M melanoma
MCF7 breast = test system: MCF7 breast
MDA-MB-231 breast = test system: MDA-MB-231 breast
MDA-MB-435 = test system: MDA-MB-435
MDA-N = test system: MDA-N
MOLT-4 leukemia = test system: MOLT-4 leukemia
NCI-H226 lung = test system: NCI-H226 lung
NCI-H23 lung = test system: NCI-H23 lung
NCI-H460 lung = test system: NCI-H460 lung
NCI-H522 lung = test system: NCI-H522 lung
NCI/ADR-RES ovarian = test system: NCI/ADR-RES ovarian
OVCAR-3 ovarian = test system: OVCAR-3 ovarian
OVCAR-4 ovarian = test system: OVCAR-4 ovarian
OVCAR-5 ovarian = test system: OVCAR-5 ovarian
OVCAR-8 ovarian = test system: OVCAR-8 ovarian
PC-3 prostate = test system: PC-3 prostate
RPMI-8226 leukemia = test system: RPMI-8226 leukemia
SF-268 CNS = test system: SF-268 CNS
SF-295 CNS = test system: SF-295 CNS
SF-539 CNS = test system: SF-539 CNS
SK-MEL-2 melanoma = test system: SK-MEL-2 melanoma
SK-MEL-28 melanoma = test system: SK-MEL-28 melanoma
SK-OV-3 ovarian = test system: SK-OV-3 ovarian
SN12C renal = test system: SN12C renal
SNB-19 CNS = test system: SNB-19 CNS
SNB-75 CNS = test system: SNB-75 CNS
SR leukemia = test system: SR leukemia
SW-620 colon = test system: SW-620 colon
TK-10 renal = test system: TK-10 renal
U251 CNS = test system: U251 CNS
UACC-257 melanoma = test system: UACC-257 melanoma
UACC-62 melanoma = test system: UACC-62 melanoma
UO-31 renal = test system: UO-31 renal
A498 renal = test system: A498 renal
RXF 393 renal = test system: RXF 393 renal
SK-MEL-5 melanoma = test system: SK-MEL-5 melanoma

## CCOC(=O)N1CCN(c2ccc3ccc(N)nc3n2)CC1
786-0 renal
  TGI: > 100 µM
A549 NSCLC
  TGI: > 100 µM
ACHN renal
  TGI: > 100 µM
BT-549 breast
  TGI: > 100 µM
CAKI-1 renal
  TGI: > 100 µM
CCRF-CEM leukemia
  TGI: > 100 µM
COLO 205 colon
  TGI: > 100 µM
DU-145 prostate
  TGI: > 100 µM
EKVX NSCLC
  TGI: > 100 µM
HCC-2998 colon
  TGI: > 100 µM
HCT-116 colon
  TGI: > 100 µM
HCT-15 colon
  TGI: > 100 µM
HL-60(TB) leukemia
  TGI: > 100 µM
HOP-62 NSCLC
  TGI: > 100 µM
HOP-92 NSCLC
  TGI: > 100 µM
HS 578T breast
  TGI: > 100 µM
HT29 colon
  TGI: > 100 µM
IGROV1 ovarian
  TGI: > 100 µM
K-562 leukemia
  TGI: > 100 µM
KM12 colon
  TGI: > 100 µM
LOX IMVI melanoma
  TGI: > 100 µM
M14 melanoma
  TGI: > 100 µM
MALME-3M melanoma
  TGI: > 100 µM
MCF7 breast
  TGI: > 100 µM
MDA-MB-231 breast
  TGI: > 100 µM
MDA-MB-435
  TGI: > 100 µM
MDA-N
  TGI: > 100 µM
MOLT-4 leukemia
  TGI: > 100 µM
NCI-H226 lung
  TGI: > 100 µM
NCI-H23 lung
  TGI: > 100 µM
NCI-H460 lung
  TGI: > 100 µM
NCI-H522 lung
  TGI: > 100 µM
NCI/ADR-RES ovarian
  TGI: > 100 µM
OVCAR-3 ovarian
  TGI: > 100 µM
OVCAR-4 ovarian
  TGI: > 100 µM
OVCAR-5 ovarian
  TGI: > 100 µM
OVCAR-8 ovarian
  TGI: > 100 µM
PC-3 prostate
  TGI: > 100 µM
RPMI-8226 leukemia
  TGI: > 100 µM
SF-268 CNS
  TGI: > 100 µM
SF-295 CNS
  TGI: > 100 µM
SF-539 CNS
  TGI: > 100 µM
SK-MEL-2 melanoma
  TGI: > 100 µM
SK-MEL-28 melanoma
  TGI: > 100 µM
SK-OV-3 ovarian
  TGI: > 100 µM
SN12C renal
  TGI: > 100 µM
SNB-19 CNS
  TGI: > 100 µM
SNB-75 CNS
  TGI: > 100 µM
SR leukemia
  TGI: > 100 µM
SW-620 colon
  TGI: > 100 µM
TK-10 renal
  TGI: > 100 µM
U251 CNS
  TGI: > 100 µM
UACC-257 melanoma
  TGI: > 100 µM
UACC-62 melanoma
  TGI: > 100 µM
UO-31 renal
  TGI: > 100 µM

## C/C(=N/NC(=S)N1CCCCC1)c1cccc(/C(C)=N\NC(=S)N2CCCCC2)n1
786-0 renal
  TGI: 3.46 µM
A498 renal
  TGI: 3.16 µM
A549 NSCLC
  TGI: 7.29 µM
ACHN renal
  TGI: 3.02 µM
BT-549 breast
  TGI: 3.4 µM
CAKI-1 renal
  TGI: 3.93 µM
CCRF-CEM leukemia
  TGI: > 100 µM
COLO 205 colon
  TGI: 10.1 µM
DU-145 prostate
  TGI: 6.35 µM
EKVX NSCLC
  TGI: 5.79 µM
HCC-2998 colon
  TGI: 4.01 µM
HCT-116 colon
  TGI: 3.64 µM
HCT-15 colon
  TGI: 4.25 µM
HL-60(TB) leukemia
  TGI: 5.66 µM
HOP-62 NSCLC
  TGI: 15.9 µM
HS 578T breast
  TGI: 6.57 µM
HT29 colon
  TGI: 7.22 µM
IGROV1 ovarian
  TGI: 4.45 µM
K-562 leukemia
  TGI: 6.65 µM
KM12 colon
  TGI: 6.14 µM
LOX IMVI melanoma
  TGI: 5.4 µM
MALME-3M melanoma
  TGI: 4.58 µM
MCF7 breast
  TGI: 4.46 µM
MDA-MB-231 breast
  TGI: 3.99 µM
MDA-MB-435
  TGI: 3.62 µM
MDA-N
  TGI: 3.17 µM
MOLT-4 leukemia
  TGI: 6.38 µM
NCI-H226 lung
  TGI: 5.54 µM
NCI-H23 lung
  TGI: > 100 µM
NCI-H460 lung
  TGI: 4.75 µM
NCI-H522 lung
  TGI: 4.34 µM
NCI/ADR-RES ovarian
  TGI: 4.72 µM
OVCAR-3 ovarian
  TGI: 5.49 µM
OVCAR-5 ovarian
  TGI: 2.44 µM
OVCAR-8 ovarian
  TGI: 3.19 µM
PC-3 prostate
  TGI: 4.03 µM
RPMI-8226 leukemia
  TGI: 6.84 µM
RXF 393 renal
  TGI: 5.15 µM
SF-268 CNS
  TGI: 9.06 µM
SF-295 CNS
  TGI: 4.06 µM
SF-539 CNS
  TGI: 3.9 µM
SK-MEL-2 melanoma
  TGI: 4.2 µM
SK-MEL-28 melanoma
  TGI: 4.32 µM
SK-MEL-5 melanoma
  TGI: 3.54 µM
SK-OV-3 ovarian
  TGI: 3.56 µM
SN12C renal
  TGI: 4.83 µM
SNB-19 CNS
  TGI: 7.09 µM
SNB-75 CNS
  TGI: 6.53 µM
SR leukemia
  TGI: 6.58 µM
SW-620 colon
  TGI: 10.6 µM
TK-10 renal
  TGI: 3.69 µM
U251 CNS
  TGI: 4.45 µM
UACC-257 melanoma
  TGI: 6.85 µM
UACC-62 melanoma
  TGI: 5.54 µM
UO-31 renal
  TGI: 2.78 µM

## O=C(O)C(C(C(=O)O)P(=O)(O)O)P(=O)(O)O (configuration not stated)
786-0 renal
  TGI: > 100 µM
A498 renal
  TGI: > 100 µM
A549 NSCLC
  TGI: > 100 µM
ACHN renal
  TGI: > 100 µM
BT-549 breast
  TGI: > 100 µM
CCRF-CEM leukemia
  TGI: > 100 µM
COLO 205 colon
  TGI: > 100 µM
DU-145 prostate
  TGI: > 100 µM
EKVX NSCLC
  TGI: > 100 µM
HCC-2998 colon
  TGI: > 100 µM
HCT-116 colon
  TGI: > 100 µM
HCT-15 colon
  TGI: > 100 µM
HL-60(TB) leukemia
  TGI: > 100 µM
HOP-92 NSCLC
  TGI: > 100 µM
HS 578T breast
  TGI: > 100 µM
HT29 colon
  TGI: > 100 µM
IGROV1 ovarian
  TGI: > 100 µM
K-562 leukemia
  TGI: > 100 µM
KM12 colon
  TGI: > 100 µM
LOX IMVI melanoma
  TGI: > 100 µM
M14 melanoma
  TGI: > 100 µM
MALME-3M melanoma
  TGI: > 100 µM
MCF7 breast
  TGI: > 100 µM
MDA-MB-435
  TGI: > 100 µM
MDA-N
  TGI: > 100 µM
MOLT-4 leukemia
  TGI: > 100 µM
NCI-H226 lung
  TGI: > 100 µM
OVCAR-3 ovarian
  TGI: > 100 µM
OVCAR-4 ovarian
  TGI: > 100 µM
OVCAR-5 ovarian
  TGI: > 100 µM
OVCAR-8 ovarian
  TGI: > 100 µM
PC-3 prostate
  TGI: > 100 µM
RPMI-8226 leukemia
  TGI: > 100 µM
SF-268 CNS
  TGI: > 100 µM
SF-539 CNS
  TGI: > 100 µM
SK-MEL-2 melanoma
  TGI: > 100 µM
SK-MEL-28 melanoma
  TGI: > 100 µM
SK-MEL-5 melanoma
  TGI: > 100 µM
SK-OV-3 ovarian
  TGI: > 100 µM
SNB-19 CNS
  TGI: > 100 µM
SNB-75 CNS
  TGI: > 100 µM
SR leukemia
  TGI: > 100 µM
SW-620 colon
  TGI: > 100 µM
TK-10 renal
  TGI: > 100 µM
U251 CNS
  TGI: > 100 µM
UACC-62 melanoma
  TGI: > 100 µM
UO-31 renal
  TGI: > 100 µM
